Laboratory results from US4346094A, “3-Aryl-5-isothiazolecarboxylic acids and related compounds used to lower uric acid levels” (Eli Lilly and Company, priority 1980, dated 1982).
Like-named read-outs stand apart in the source and are kept apart here.

Experiments:
xanthine oxidase = target: T1, xanthine oxidase (Bos taurus, UniProt P80457); experiment: in vitro xanthine oxidase assay (rate of uric acid formation from xanthine); type: biochemical
T1 construct: purchased Sigma Chemical Company, St. Louis, Mo; host or cells: milk (grade III, chromatographically purified)
T1 sequence (P80457 whole entry): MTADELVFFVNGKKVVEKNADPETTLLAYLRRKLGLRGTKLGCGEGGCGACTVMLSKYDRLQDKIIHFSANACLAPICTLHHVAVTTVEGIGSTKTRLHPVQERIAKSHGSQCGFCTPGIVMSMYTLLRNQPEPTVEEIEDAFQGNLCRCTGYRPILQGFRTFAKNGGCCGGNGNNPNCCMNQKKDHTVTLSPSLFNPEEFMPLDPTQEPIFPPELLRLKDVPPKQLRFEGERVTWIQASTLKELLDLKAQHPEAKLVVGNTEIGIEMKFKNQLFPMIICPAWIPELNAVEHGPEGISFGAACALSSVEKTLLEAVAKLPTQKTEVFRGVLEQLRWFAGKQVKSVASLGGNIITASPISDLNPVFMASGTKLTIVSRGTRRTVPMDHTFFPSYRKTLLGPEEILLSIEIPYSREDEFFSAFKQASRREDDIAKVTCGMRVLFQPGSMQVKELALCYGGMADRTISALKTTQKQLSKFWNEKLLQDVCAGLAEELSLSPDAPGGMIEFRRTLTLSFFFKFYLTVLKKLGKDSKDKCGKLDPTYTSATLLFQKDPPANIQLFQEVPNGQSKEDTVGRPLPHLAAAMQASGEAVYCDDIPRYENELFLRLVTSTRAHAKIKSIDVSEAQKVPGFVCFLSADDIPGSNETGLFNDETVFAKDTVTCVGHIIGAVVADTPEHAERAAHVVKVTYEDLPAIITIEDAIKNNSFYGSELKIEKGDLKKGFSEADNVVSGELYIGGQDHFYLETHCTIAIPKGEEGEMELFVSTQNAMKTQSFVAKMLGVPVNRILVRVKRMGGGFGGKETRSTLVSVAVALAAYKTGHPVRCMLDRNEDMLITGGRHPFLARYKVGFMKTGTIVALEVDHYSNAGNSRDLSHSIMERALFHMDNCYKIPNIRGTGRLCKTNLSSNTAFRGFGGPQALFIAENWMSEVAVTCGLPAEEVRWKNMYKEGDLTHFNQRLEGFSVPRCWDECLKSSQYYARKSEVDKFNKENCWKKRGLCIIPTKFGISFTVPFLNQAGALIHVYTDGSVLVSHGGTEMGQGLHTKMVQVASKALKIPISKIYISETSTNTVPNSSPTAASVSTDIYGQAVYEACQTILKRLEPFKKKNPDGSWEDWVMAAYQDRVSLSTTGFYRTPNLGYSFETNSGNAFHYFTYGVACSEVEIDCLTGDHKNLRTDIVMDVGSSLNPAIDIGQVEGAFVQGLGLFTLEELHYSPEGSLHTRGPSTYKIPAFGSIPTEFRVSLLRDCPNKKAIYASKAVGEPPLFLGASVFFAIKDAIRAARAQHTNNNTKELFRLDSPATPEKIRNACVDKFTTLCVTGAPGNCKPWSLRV
Procedure: Since uric acid is produced by the oxidation of, first, hypoxanthine to xanthine and, second, of xanthine to uric acid via the enzyme, xanthine oxidase, an inhibitor of xanthine oxidase in vivo would obviously decrease the uric acid concentrations in the blood.
Xanthine oxidase activity was measured at room temperature by the rate of uric acid formation from xanthine substrate. In a total volume of 1 ml., the incubation mixture contained 50 micromoles of potassium phosphate buffer at pH 7.4, 0.05 micromoles of xanthine and 0.01 units of enzyme preparation (chromatographically purified milk xanthine oxidase, grade III, obtained from Sigma Chemical Company, St. Louis, Mo.). The absorbence change at 292 nm was recorded by a Gilford recording spectrophotometer and the uric acid formed was calculated using an extinction coefficient of 12 mM^-1 Cm^-1 at 292 nm.

plasma uric acid = experiment: in vivo lowering of plasma uric acid in rats, oral (ED50); conditions: Rattus norvegicus, read-out: ED50 (dose which reduces plasma level of uric acid by one-half)
Procedure: (§1) All of the compounds corresponding to formula I above which applicants have prepared are active in vivo in lowering plasma uric acid levels. […] The first method, the spectrofluorometric method, was modified from the procedure of Sumi et al., Clinica. Chimica. Acta., 73, 233 (1976). Rats were sacrificed by decapitation and their blood collected into vacutainer tubes containing heparin via heparinized glass funnels. The blood was centrifuged for 8 minutes at 4000 rpm after which time the plasma was separated and diluted 1:1 with water. Plasma protein was precipitated by addition of acetic acid to a final concentration of 0.007 molar and boiling the resulting mixture for 5 minutes in Sorval tubes. Clear deproteinized plasma was obtained after centrifugation of the resulting plasma for 30 minutes at 25,000 rpm. Uric acid was assayed as follows: 0.2 ml. aliquots of the clear deproteinized plasma were mixed with 120λ of uricase (0.045 mu/ml.) and incubated for 30 minutes at 27° C. 1.0 ml. of a p-hydroxyphenylacetic acid buffer was added. Samples obtained from feeding rats or dogs serial doses of the compound under test were incubated with the above buffer solution for 30 minutes at 27° C. Fluorescence of the solution was measured in quartz tubes using an Aminco Bowman-Spectrofluorimeter having excitation of 321 nm and emission at 412 nm. Five uric acid standards from 6-30 micromolar were assayed for each test and each standard yielded a linear curve.
The second method was called the HPLC-EC Detection method. Here, blood plasma was collected from rats as described above and from dogs in heparinized syringes from the cefalic vein in the forearm and centrifuged with Sure-Sep to separate plasma. Deproteninized plasma was prepared in each instance by first diluting one volume of plasma with one volume of an internal standard solution, 4 mcg./ml., and then addition of two volumes of 5% trichloroacetic acid. Standards were added to control plasma in the range of 0-8 mcg./ml. of uric acid. Samples obtained by feeding graded doses of drug under test to dogs or rats were mixed for 30 seconds and then centrifuged in an Eppendorf microcentrifuge. Supernates were diluted 1:10 in column buffer and assayed for uric acid. Internal standards used were 3-methyluric acid for the rat samples and 3,9-dimethyluric acid for dog samples. Assays were performed as follows using a Bioanalytic Systems Inc. LC-44 analyser and an electrochemical detector system based on an Altex model 110 pump coupled with a CP-O carbon paste electrodetector. Samples for assay were put into a DuPont 834 autosampler and automatically injected into a laboratory packed stainless steel column (4.1 mm id, 1/4" od 25 cm.1) containing reverse phase packing (sperisorb. O.D. 5μ Regis Chemical Co.). The column buffers employed were 0.1 M disodium phosphate, 0.05 M citric acid and 10% methanol for rat samples; 0.1 M disodium phosphate, 10% methanol and citric acid titrated at pH 6.5 for dog samples. The same internal standards were employed as before. Retention times for uric acid, 3-methyluric acid and 3,9-dimethyluric acid were established. Uric acid levels were then calculated from peak areas by computer analysis. Table V which follows gives the oral ED50 in rats for a group of the preferred compounds of this invention (those in which the 3-position of the isothiazole ring carries a 3-trifluoromethylphenyl group). […]

[1] = oral acute toxicity in mice (LD50); conditions: mouse, in vivo; for LD50: oral, mice, read-out: LD50 (dose which kills one-half of the animals); for therapeutic index (LD50/ED50): oral LD50 mice / oral ED50 rats, read-out: Ratio of LD50 to ED50
From the text: The compounds represented by the above formula are also relatively non-toxic. In column 3 of Table V are listed the oral LD50 for mice in mg. per kg. for each of the compounds of column 1 (dose which kills one-half of the animals). Finally, column 4 in Table V gives the ratio of LD50 to ED50. It will be seen that the ratio of the LD50 to the ED50 is quite high, giving a substantial margin of safety for using the compounds of this invention in treating gout in mammals, particularly humans.

[2] = oral administration of ester and amides, percent inhibition in vivo
Procedure: as §1
The second method was called the HPLC-EC Detection method. Here, blood plasma was collected from rats as described above and from dogs in heparinized syringes from the cefalic vein in the forearm and centrifuged with Sure-Sep to separate plasma. Deproteninized plasma was prepared in each instance by first diluting one volume of plasma with one volume of an internal standard solution, 4 mcg./ml., and then addition of two volumes of 5% trichloroacetic acid. Standards were added to control plasma in the range of 0-8 mcg./ml. of uric acid. […] Uric acid levels were then calculated from peak areas by computer analysis. […]

[3] = milk xanthine oxidase 0.01 units, 0.05 micromoles xanthine in 1 ml, pH 7.4, room temperature, 292 nm, read-out: I50 (concentration of drug which inhibits 50% of the oxidation of xanthine to uric acid by the xanthine oxidase preparation) (converted)

Row | Compound | IC50 (xanthine oxidase; [3]) | ED50 (plasma uric acid) | LD50 [1] | IC50 (xanthine oxidase) | therapeutic index (LD50/ED50) [1] | Percent Inhibition ([2]; oral dosage 50 mg.kg) | Percent Inhibition ([2]; oral dosage 25 mg.kg)
1 | Nc1c(-c2cccc(C(F)(F)F)c2)nsc1C(=O)O [R=3-CF3, R^1=H, 3-(3-trifluoromethylphenyl)-4-amino-5-isothiazolecarboxylic acid] | 0.0763 µM | 17.5 mg/kg | 798 ± 66 mg/kg | – | – | – | –
2 | O=C(O)c1snc(-c2cccc(C(F)(F)F)c2)c1Br [R=3-CF3, X=Br, 3-(3-trifluoromethylphenyl)-4-bromo-5-isothiazolecarboxylic acid] | – | 5.2 mg/kg | ~260 mg/kg | 0.0511 µM | ~50 | – | –
3 | O=C(O)c1snc(-c2cccc(C(F)(F)F)c2)c1Cl [R=3-CF3, X=Cl, 3-(3-trifluoromethylphenyl)-4-chloro-5-isothiazolecarboxylic acid] | – | 6.4 mg/kg | 138 ± 12 mg/kg | 0.0325 µM | 21.6 | – | –
4 | O=C(O)c1cc(-c2cccc(C(F)(F)F)c2)ns1 [R=3-CF3, X=H, 3-(3-trifluoromethylphenyl)-5-isothiazolecarboxylic acid] | 0.0549 µM | 15 mg/kg | 201 ± 13 mg/kg | – | 13.4 | – | –
5 | O=C(O)c1snc(-c2cccc(C(F)(F)F)c2)c1O [R=3-CF3, X=OH, 3-(3-trifluoromethylphenyl)-4-hydroxy-5-isothiazolecarboxylic acid] | 0.0256 µM | 18 mg/kg | 727 ± 35 mg/kg | – | 40 | – | –
6 | NC(=O)c1snc(-c2cccc(C(F)(F)F)c2)c1N [R=NH2, 3-(3-trifluoromethylphenyl)-4-amino-5-isothiazolecarboxamide] | – | – | – | – | – | 13% | –
7 | CNC(=O)c1snc(-c2cccc(C(F)(F)F)c2)c1N [R=NHCH3, N-methyl 3-(3-trifluoromethylphenyl)-4-amino-5-isothiazolecarboxamide] | – | – | – | – | – | – | 32%
8 | COC(=O)c1snc(-c2cccc(C(F)(F)F)c2)c1N [R=OCH3, Methyl 3-(3-trifluoromethylphenyl)-4-amino-5-isothiazolecarboxylate] | – | – | – | – | – | – | 64%
